Assay results: US12185720B2, “Chitooligosaccharides and methods for use in enhancing plant growth” (NOVOZYMES BIOAG A/S, priority 2011, dated 2025)
“Also recorded” adds a separate entry of the source.

Experiments:
Red Clover seeds = assay: Seed germination in multiple crops: Red Clover; assay type: in vivo; details: 24 h, dark, 22° C., FIG. 23
Protocol: (§1) Similar to the seed germination experiment mentioned above, seeds of different crops were placed on moist filter paper in petriplates containing 5 ml liquid in each. Petriplates with seeds were then kept in the dark at 22° C.

Green Mung seeds = assay: Seed germination in multiple crops: Green Mung; assay type: in vivo; details: 24 h, dark, 22° C., FIG. 23
Protocol: as §1

[1] = test system: Alfalfa (Medicago sativa) seeds; assay: Alfalfa seed germination; assay type: in vivo; details: 10^−8 M, FIG. 17
Protocol: Alfalfa (Medicago sativa) seeds were germinated in petriplates on moist filter paper containing Pea LCO and Pea CO treatment solutions (10^−8 M) and petriplates were kept in the dark at room temperature (22° C.).

Corn seeds [2] = assay: Corn seed germination and root length in petriplates; assay type: in vivo; details: 5 days after plating
Protocol: Corn and wheat seeds were plated in petriplates containing 5 ml of treatment solution on a filter paper. Corn seeds were placed on moist filter paper for germination. Similarly, wheat seeds (spring wheat) were placed in petriplates. […] Roots were harvested and their length measured by WinRhizo system.

Cotton seeds = assay: Cotton seed treatment (greenhouse); assay type: in vivo; details: seed treatment 10^−8 M, 3 fl oz/100 lbs of seed; 4 wks; FIG. 26
Protocol: Cotton seeds were treated with LCO and CO 10^−8 M treatment solutions at a dose rate of 3 fl oz/100 lbs of seed. Seeds were planted the very next day in plastic pots containing 1:1 sand:perlite mixture. Seeds were grown in greenhouse for 4 wks and then they were harvested.

Lab Lab seeds = assay: Seed germination in multiple crops: Lab Lab; assay type: in vivo; details: 30 h, dark, 22° C., FIG. 23
Protocol: as §1

[3] = test system: Green Mung, Lab Lab, Red Lentil and Red Clover seeds; assay: Seed germination in multiple crops, overall; assay type: in vivo; details: four crops; dark, 22° C.; FIG. 23
Protocol: as §1

corn = assay: Corn field trials, seed application, grain yield; assay type: in vivo
Cotton plants [4] = assay: Cotton foliar experiment (greenhouse); assay type: in vivo; details: sprayed at V4 stage with 10^−8 M; grown up to 4 weeks; FIG. 9
Source text: Cotton seeds were planted and grown to V4 stage (4 leaved stages) and then were sprayed with 10^−8 M of the LCO illustrated in FIG. 2b (also referred to in the examples as the “Pea LCO”) and the pea CO and then left to grow up to 4 weeks with occasional watering with Hoagland solution. Control plants were sprayed with water.

Cotton plants [5] = assay: Cotton foliar application with micronutrients (greenhouse); assay type: in vivo; details: foliar spray Pea CO 10^−8 M, 4 wks after treatment, compared to control
Protocol: Cotton plants were grown from seeds in greenhouse plastic pots containing sand:perlite in a 1:1 mixture. When seedlings were at the V-stage, they were foliar-sprayed with Pea CO (10^−8 M) and CO plus micronutrients (Ca-pantothenate and boric acid), each in minute amounts. Plants were harvested 4 wks after treatment. Before harvest, leaf greenness was measured by SPAD chlorophyll meter.

soybean = assay: Soybean field trials, foliar application, grain yield; assay type: in vivo
[6] = test system: Common vetch (Vicia sativa) seeds; assay: Common vetch seed germination and root length; assay type: in vivo; details: FIG. 21
Protocol: Common vetch seeds were plated in petriplates containing 5 ml of treatment solutions on filter paper. Seed germination at 22° C. was counted after 24 h and seedling root length was measured at day 5 with WinRhizo system.

[7] = test system: tomato Var. Royal Mounty seeds; assay: Tomato seedling root growth in petriplates (Example 11); assay type: in vivo; details: 22° C.; 5 days in dark; FIG. 24
Protocol: In petriplate seed germination process, tomato Var. Royal Mounty seeds ware placed on moist filter paper soaked with 5 ml treatment solution. At 22° C. and after 5 days in dark, tomato seedling roots were measured for growth by WinRhizo system.

Red Clover root hairs = assay: Root hair deformation bioassay, Red Clover; details: compared to LCO
Protocol: Siratro (Macroptelium atropurpureum) seeds were germinated on moist filter paper in petriplates. When seedlings roots are about 1-inches long, they are severed from the seedlings and treated with 2 ml of 10^−8M treatment solutions in test tubes for 4 hours in the dark. After treatment time is over the solutions are dyed with Congo Red for 10 minutes. After that root segments are observed under a compound microscope to count the number of deformed root hairs in the most sensitive zone of the root segment. Root hair deformation bioassay was also performed using Red Clover in a similar fashion like Siratro above and only visual observation was made and recorded in text form.

[8] = test system: Soybean seeds (Pioneer 9oM80); assay: Soybean seed treatment, radicle length; assay type: in vivo; details: after 48 hours, FIG. 25
Protocol: Soybean seeds (Pioneer 9oM80) were plated in petriplates on moist germination paper soaked with 5 ml of treatment solution containing either water or Soybean LCO, Pea CO and CO plus fatty acids. Seedling radicles were isolated after 48 hours and measured for their length.

Corn seeds [9] = assay: Corn seed application (greenhouse); assay type: in vivo; details: seed treatment; CO 10^−8 M, LCO 10^−8 M alone or LCO 10^−9 with CO 10^−8; harvested 10 days after planting; FIG. 28
Protocol: Corn seeds were treated with various combinations of Pea CO (10^−8 M) and Pea LCO (10^−8, 10^−9 M). Seeds were planted in greenhouse plastic pots containing 1:1 sand:perlite mixture. Seedlings were harvested 10 days after planting, washed clean and then dried in an oven at 60 C for 48 hr.

## CC(=O)NC1C(O)OC(CO)C(OC2OC(CO)C(OC3OC(CO)C(OC4OC(CO)C(OC5OC(CO)C(O)C(O)C5N)C(O)C4NC(C)=O)C(O)C3NC(C)=O)C(O)C2NC(C)=O)C1O (stereo not drawn) [Pea CO]
Red Clover seeds
  seed germination: better germination
Green Mung seeds
  seed germination: better germination
[1]
  effect on alfalfa seed germination (conclusion): could positively impact
[1]; dark, 22° C.
  germination rate at 20 h among control, LCO and CO: no difference
  more germination over control and LCO at 27 h: 6%
Corn seeds [2]; FIG. 18
  corn seed germination: increased germination
Corn seeds [2]; WinRhizo, FIG. 19
  corn seedling root length over control: significantly increased
Cotton seeds
  cotton plant dry weight: no significant differences; also recorded: relatively higher
  total plant dry weight increase over control: 3.29%
Lab Lab seeds
  seed germination: better germination
[3]
  overall seed germination compared to Pea LCO: better than Pea LCO
corn
  YIELD, Response Increase: 3.6 % of Control
corn; 1×10^−8 molar, 1 μg/acre, 3 fl oz per 50 pounds of seed
  YIELD, Mean (N = 10): 188.0 bu/A
corn; amongst the ten trials
  less positive yield responses than LCO: 10.0%
corn; less
  CO mean yield less than LCO: 4.6 bu/A
  less yield increase above the Control than LCO: 2.5%
corn; over Control
  YIELD, Response: 6.5 bu/A
corn; percent of the ten trials
  Positive Yield Response: 80.0%
Cotton plants [4]
  more plant fresh weight increase over LCO: 1.14%
  plant fresh weights over control: significantly increased
Cotton plants [5]; FIG. 30
  leaf greenness (SPAD chlorophyll meter): significantly increased
Cotton plants [5]; FIG. 31
  average dry plant weight: numerical increase
soybean; soybean foliar at V4 to V5, 8×10^−8 molar, 12 μg/acre, with glyphosate
  YIELD, Mean (N = 19): 58.2 bu/A
soybean; soybean foliar, 12 μg/acre
  YIELD, Response Increase: 3 % of Control
soybean; soybean foliar, 12 μg/acre, listed as CO (CO-V)
  YIELD, Response Increase: 3% of Control
soybean; soybean foliar, 12 μg/acre, over Control
  YIELD, Response: 1.7 bu/A
soybean; soybean foliar, CO minus LCO, less
  CO mean yield less than foliar LCO: 0.1 bu/A
soybean; soybean foliar, CO versus LCO
  yield enhancement as a foliar treatment (conclusion): substantially equal yield enhancements
soybean; soybean foliar, percent of the 19 trials
  Positive Yield Response: 68.4%
[6]; 22° C., counted after 24 h
  early seed germination: induced early seed germination
[6]; one day after plating
  more germination over control and LCO: 25%
[7]
  average seedling root length compared to LCO: better than LCO but it was not significantly better
  tomato seedling root length as compared to water control: increased root length
Red Clover root hairs
  root hair deformation pattern (visual observation): much better and prominent; also recorded: best root hair deformer
[8]
  seedling radicle length: less effective
Corn seeds [9]
  corn seedling dry weight: increased corn seedling dry weight
